Reference: ChEMBL document CHEMBL5725391, “1,3-diaminocyclopentane carboxamide derivatives” (2017)

biological target: Fatty acid synthase (Homo sapiens, UniProt P49327); assay: Biochemical Assay of FASN: The biochemical FASN activity testing was performed as 384 well two-time-point kinetic fluorescence intensity assay format in Greiner low volume medium binding 384-well black microtiter plates in a total assay volume of 8 μl and was used for high throughput screen. In each well 3 μl 40 nM human recombinant full-length fatty acid synthase (produced in-house in SF9 cells) were dispensed in the following assay buffer: 50 mM potassium phosphate buffer pH 7.0, 0.005% (w/v) BSA, 2 mM Glutathione, 0.02% Tween-20. Then 2 μl of 200 μM NADPH in assay buffer were added, followed by the addition of the test compounds in 10 dilution concentrations starting with 30 μM (final concentration) to get a final DMSO content of 1% (v/v). The mixture was incubated for at least 15 min at room temperature. After the pre-incubation the enzymatic reaction was started by the addition of 2 μl substrate solution (80 μM acetyl-CoA, 240 μM malonyl-CoA). A first fluorescence intensity measurement (time point one) was performed with an Envision multimode reader (Perkin Elmer LAS Germany GmbH) at excitation wavelength 340 nm (lamp mode) and emission wavelength 460 nm. The reaction was incubated for 30 minutes at room temperature. After this the fluorescence intensity was measured again in the Envision using the same parameters as described above (second time point measurement). The data were analysed by subtracting the first time point measurement value from the second time point measurement value (after the enzymatic reaction). The differences of the emission signals were determined. These reflect directly the conversion rate of NADPH. The full value used was the inhibitor-free reaction. A pharmacological zero value was used like GSK837149A (Sigma-Aldrich) in a final concentration of 5-10 μM. The inhibitory values (IC50) were determined using either the program Symyx Assay Explorer® or Condosseo® from GeneData.
Sequence (P49327 whole entry): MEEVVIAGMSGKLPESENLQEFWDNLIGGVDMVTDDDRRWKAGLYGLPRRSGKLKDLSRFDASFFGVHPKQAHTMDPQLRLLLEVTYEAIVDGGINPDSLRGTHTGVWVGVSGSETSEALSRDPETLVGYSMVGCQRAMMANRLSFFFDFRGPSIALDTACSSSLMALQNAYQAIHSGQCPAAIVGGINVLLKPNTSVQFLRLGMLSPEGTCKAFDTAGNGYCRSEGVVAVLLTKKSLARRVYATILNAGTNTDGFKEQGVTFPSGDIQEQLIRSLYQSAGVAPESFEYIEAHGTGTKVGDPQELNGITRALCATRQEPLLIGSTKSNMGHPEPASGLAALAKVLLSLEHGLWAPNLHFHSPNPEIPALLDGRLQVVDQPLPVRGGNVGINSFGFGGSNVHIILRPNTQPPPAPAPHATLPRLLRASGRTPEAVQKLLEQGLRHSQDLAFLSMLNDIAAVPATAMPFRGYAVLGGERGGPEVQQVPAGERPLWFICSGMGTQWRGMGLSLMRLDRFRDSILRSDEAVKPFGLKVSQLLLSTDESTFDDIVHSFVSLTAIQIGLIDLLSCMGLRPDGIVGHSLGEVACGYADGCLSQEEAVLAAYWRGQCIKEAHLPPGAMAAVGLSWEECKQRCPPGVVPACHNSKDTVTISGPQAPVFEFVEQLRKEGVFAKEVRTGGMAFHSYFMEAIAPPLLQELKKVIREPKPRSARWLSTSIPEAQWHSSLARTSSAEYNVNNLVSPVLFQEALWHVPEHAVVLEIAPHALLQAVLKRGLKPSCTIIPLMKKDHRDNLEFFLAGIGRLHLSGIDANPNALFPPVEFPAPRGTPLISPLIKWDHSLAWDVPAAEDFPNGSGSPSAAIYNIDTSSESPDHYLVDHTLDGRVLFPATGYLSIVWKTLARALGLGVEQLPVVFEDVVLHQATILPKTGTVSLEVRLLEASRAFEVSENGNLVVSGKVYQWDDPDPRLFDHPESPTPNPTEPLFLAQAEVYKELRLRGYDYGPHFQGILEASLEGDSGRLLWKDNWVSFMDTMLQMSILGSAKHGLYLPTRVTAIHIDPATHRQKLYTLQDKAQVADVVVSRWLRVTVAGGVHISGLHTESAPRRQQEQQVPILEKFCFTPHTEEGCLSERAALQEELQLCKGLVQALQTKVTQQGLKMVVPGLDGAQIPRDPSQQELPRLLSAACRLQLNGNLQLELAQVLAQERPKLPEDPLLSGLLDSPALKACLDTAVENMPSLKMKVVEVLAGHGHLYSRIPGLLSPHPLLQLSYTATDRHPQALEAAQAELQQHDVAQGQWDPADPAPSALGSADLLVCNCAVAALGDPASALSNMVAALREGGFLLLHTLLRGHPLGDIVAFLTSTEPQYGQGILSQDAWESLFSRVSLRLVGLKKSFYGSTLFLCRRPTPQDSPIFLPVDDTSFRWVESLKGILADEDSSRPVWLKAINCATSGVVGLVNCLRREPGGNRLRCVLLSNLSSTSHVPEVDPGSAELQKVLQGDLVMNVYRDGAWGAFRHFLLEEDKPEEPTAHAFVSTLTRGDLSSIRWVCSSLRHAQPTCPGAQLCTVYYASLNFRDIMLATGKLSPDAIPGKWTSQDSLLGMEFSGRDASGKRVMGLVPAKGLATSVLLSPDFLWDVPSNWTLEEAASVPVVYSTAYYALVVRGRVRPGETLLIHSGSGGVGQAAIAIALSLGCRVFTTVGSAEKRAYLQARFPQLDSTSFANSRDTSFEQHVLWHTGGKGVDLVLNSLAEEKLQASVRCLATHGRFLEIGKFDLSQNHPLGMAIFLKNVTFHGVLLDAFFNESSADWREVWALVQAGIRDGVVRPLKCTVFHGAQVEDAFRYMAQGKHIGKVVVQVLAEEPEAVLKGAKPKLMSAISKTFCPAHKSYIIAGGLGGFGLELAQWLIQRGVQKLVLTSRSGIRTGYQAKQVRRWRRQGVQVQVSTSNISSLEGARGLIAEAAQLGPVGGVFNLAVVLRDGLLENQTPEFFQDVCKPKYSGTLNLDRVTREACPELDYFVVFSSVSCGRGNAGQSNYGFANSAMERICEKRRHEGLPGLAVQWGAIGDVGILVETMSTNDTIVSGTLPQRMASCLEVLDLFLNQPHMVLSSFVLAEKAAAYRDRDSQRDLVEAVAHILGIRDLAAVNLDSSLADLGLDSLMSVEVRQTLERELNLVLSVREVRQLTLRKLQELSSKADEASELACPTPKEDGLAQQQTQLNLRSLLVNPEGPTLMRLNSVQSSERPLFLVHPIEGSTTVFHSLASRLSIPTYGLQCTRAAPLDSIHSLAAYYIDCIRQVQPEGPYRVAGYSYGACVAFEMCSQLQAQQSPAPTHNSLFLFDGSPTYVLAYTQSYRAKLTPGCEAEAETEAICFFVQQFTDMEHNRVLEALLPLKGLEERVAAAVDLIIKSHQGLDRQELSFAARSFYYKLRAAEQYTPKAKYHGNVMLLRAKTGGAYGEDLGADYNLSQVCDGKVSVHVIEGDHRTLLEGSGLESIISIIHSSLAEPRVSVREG

SMILES	IC50 [nM]
CCC(=O)N[C@H]1CC[C@@H](N(C)C(=O)c2sc(-c3ccc4[nH]ccc4c3)nc2C)C1	< 300
CCC(=O)N[C@H]1CC[C@@H](N(C)C(=O)c2ccc(-c3cccc4[nH]ncc34)cc2)C1	< 300
CCC(=O)N[C@H]1CC[C@@H](N(C)C(=O)c2cnc(-c3ccc4[nH]ccc4c3)s2)C1	< 300

The remaining lines, values ahead:

IC50 [nM]	SMILES
< 300	CCC(=O)N[C@H]1CC[C@@H](N(C)C(=O)c2ccc(-c3cc(F)c4[nH]cc(C(N)=O)c4c3)cc2)C1
< 300	CCC(=O)N[C@H]1CC[C@@H](N(C)C(=O)c2ccc(-c3ccc(C#N)cc3F)cc2)C1
< 300	CCC(=O)N[C@H]1CC[C@@H](N(C)C(=O)c2ccc(-c3ccc4[nH]cc(F)c4c3)nc2)C1
< 300	CN(C(=O)c1ccc(-c2nc3ccccc3o2)cc1F)[C@@H]1CC[C@H](NC(=O)[C@@H]2CCCO2)C1
